The source of these data is patent publication US11466006B2, “Dual selective PI3 delta and gamma kinase inhibitors” (Rhizen Pharmaceuticals SA, priority 2013, dated 2022).

For one series, the target named is Pi3K γ (Homo sapiens, UniProt P48736). Nature of the series: Fluorescent (HTRF) determination of PI3 kinase enzyme activity, gamma isoform. The format is biochemical. Details: purchased Millipore (assay kit). Conditions: Table 1, unit printed in cell; read-out: IC50 Pi3K γ. From the text: (§1) Phosphoinositide 3 kinases (PI3K) belong to a class of lipid kinases that play a critical role in the regulation of several key cellular processes. The PI3K are capable of phosphorylating the 3-hydroxy position of phosphoinositols thereby generating second messengers involved in downstream signalling events. The homogenous time resolved fluorescence (HTRF) assay allows detection of 3,4,5-triphosphate (PIP3) formed as a result of phosphorylation of phosphotidylinositol 4,5-biphosphate (PIP2) by PI3K isoforms such as α, β, γ or δ.
Chain of Pi3K γ (P48736 whole entry, canonical isoform): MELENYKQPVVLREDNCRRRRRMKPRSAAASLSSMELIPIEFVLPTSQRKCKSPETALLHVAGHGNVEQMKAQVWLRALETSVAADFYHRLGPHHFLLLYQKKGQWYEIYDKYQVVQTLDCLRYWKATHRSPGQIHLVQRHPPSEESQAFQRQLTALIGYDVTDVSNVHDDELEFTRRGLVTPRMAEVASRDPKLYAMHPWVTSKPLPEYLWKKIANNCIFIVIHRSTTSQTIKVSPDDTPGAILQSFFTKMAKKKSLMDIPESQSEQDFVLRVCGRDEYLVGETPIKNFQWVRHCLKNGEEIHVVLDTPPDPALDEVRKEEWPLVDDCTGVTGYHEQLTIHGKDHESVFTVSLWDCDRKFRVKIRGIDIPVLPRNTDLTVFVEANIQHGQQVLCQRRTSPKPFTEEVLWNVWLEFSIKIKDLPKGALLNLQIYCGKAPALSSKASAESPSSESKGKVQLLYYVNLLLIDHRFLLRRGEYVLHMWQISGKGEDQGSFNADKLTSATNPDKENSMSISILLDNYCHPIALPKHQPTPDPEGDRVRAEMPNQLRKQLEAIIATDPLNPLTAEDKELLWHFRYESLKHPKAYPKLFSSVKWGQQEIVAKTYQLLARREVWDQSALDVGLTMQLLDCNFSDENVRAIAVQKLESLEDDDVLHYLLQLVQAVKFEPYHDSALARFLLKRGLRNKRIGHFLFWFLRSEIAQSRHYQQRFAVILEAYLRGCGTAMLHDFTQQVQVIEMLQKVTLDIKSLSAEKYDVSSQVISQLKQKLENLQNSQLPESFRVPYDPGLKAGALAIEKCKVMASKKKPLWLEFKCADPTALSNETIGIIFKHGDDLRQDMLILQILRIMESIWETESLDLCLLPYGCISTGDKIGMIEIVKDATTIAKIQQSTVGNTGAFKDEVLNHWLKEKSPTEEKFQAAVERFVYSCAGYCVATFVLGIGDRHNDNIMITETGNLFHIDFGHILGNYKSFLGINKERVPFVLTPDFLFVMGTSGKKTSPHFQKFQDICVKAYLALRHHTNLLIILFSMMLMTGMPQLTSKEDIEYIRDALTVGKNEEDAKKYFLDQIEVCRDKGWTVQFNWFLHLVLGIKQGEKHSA
(§2) PI3K isoform activity for α, β, γ or δ was determined using a PI3K human HTRF™ Assay Kit (Millipore, Billerica, Mass.) with modifications. All incubations were carried out at room temperature. Briefly, 0.5 μl of 40× inhibitor (in 100% DMSO) or 100% DMSO were added to each well of a 384-well white plate (Greiner Bio-One, Monroe, N.C.) containing 14.5 μl 1× reaction buffer /PIP2 (10 mM MgCl2, 5 mM DTT, 1.38 μM PIP2) mix with or without enzyme, followed by 5 μl/well of 400 μM ATP and incubated for an additional 30 minutes. Reaction was terminated by adding 5 μl/well stop solution (Millipore, Billerica, Mass.). […] HRTF ratio was measured on a microplate reader (BMG Labtech., Germany) at an excitation wavelength of 337 nm and emission wavelengths of 665 and 615 nm with an integration time of 400 msec counting delay of 50 msec.
For orientation: Time-resolved FRET reads energy transfer from a long-lived donor to a nearby acceptor.

In the next series the target is PI3Kδ (Homo sapiens, UniProt O00329). The series can be described thus: Fluorescent (HTRF) determination of PI3 kinase enzyme activity, delta isoform. The class given is biochemical. The arrangement: purchased Millipore (assay kit). Conditions: Table 1, unit printed in cell; read-out: IC50 Pi3Kδ.
Chain of PI3Kδ (O00329 whole entry, canonical isoform): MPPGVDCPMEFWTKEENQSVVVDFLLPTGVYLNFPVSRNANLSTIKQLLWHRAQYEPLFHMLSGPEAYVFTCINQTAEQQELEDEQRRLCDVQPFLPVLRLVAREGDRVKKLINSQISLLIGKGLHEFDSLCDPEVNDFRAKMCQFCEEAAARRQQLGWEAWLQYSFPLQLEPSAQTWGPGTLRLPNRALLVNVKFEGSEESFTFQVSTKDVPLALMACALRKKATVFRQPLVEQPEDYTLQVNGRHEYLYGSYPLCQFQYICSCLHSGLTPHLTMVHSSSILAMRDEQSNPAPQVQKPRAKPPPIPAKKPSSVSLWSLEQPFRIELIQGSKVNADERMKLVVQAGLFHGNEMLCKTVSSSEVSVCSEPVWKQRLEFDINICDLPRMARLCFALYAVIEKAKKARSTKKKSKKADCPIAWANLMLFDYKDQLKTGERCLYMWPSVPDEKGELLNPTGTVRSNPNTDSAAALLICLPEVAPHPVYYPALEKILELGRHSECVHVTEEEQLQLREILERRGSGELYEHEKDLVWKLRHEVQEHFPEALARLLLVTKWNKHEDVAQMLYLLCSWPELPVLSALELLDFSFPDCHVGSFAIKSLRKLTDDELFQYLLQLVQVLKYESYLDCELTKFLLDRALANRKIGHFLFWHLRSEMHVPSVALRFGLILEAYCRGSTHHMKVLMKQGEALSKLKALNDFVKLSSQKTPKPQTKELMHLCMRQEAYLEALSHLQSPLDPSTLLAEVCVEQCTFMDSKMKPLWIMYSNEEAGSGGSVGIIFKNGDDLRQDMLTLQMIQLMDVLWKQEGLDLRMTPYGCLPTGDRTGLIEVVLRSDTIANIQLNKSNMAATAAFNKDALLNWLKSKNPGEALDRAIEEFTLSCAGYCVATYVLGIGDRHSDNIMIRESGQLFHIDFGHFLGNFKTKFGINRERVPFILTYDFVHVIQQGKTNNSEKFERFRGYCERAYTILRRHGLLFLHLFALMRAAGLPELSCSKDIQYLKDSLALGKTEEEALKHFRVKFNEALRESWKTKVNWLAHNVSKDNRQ
Chain of PI3Kδ (P27986 whole entry partner, canonical isoform): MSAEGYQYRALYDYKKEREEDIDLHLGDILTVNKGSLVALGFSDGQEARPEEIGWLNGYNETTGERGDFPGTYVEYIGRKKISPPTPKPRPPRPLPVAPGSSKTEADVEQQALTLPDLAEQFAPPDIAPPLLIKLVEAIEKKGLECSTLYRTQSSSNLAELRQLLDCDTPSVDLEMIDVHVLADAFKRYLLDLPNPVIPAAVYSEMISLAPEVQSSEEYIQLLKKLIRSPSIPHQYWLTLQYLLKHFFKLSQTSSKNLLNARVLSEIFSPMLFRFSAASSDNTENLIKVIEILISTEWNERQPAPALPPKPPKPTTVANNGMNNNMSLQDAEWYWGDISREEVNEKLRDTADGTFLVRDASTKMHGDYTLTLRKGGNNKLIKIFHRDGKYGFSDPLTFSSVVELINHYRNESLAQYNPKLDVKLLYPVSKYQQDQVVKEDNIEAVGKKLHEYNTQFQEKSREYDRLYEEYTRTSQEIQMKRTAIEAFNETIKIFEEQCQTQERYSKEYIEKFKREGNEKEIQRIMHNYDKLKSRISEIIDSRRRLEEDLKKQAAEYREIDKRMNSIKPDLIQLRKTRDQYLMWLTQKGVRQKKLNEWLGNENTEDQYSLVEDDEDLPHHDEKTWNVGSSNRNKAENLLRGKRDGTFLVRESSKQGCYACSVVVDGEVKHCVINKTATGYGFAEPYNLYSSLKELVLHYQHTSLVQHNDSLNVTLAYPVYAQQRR
Excerpt: as §1, §2

For series [1] the following is noted: reported at 55th ASH Annual Meeting 2013; cited from earlier work.

Broadly, the IC50 is the concentration at which inhibition is half-maximal. As for `CC[C@@H](Nc1ncnc2[nH]cnc12)c1oc2ccccc2c(=O)c1-c1cccc(F)c1` [Compound A2, (R)-2-(1-(9H-purin-6-ylamino)propyl)-3-(3-fluorophenyl)-4H-chromen-4-one], the IC50 at Pi3K γ and at PI3Kδ was over 10 µM in each case.
On to `C[C@H](Nc1ncnc2[nH]cnc12)c1cc2cccc(Cl)c2c(=O)n1-c1ccccc1` [IPI-45], for which the “maximum tolerated dose (MTD)” value in series [1] is 75 mg BID.
